# Target: T1, Potassium/sodium hyperpolarization-activated cyclic nucleotide-gated channel 4 (Homo sapiens) (UniProt Q9Y3Q4)
# T1 sequence (whole entry): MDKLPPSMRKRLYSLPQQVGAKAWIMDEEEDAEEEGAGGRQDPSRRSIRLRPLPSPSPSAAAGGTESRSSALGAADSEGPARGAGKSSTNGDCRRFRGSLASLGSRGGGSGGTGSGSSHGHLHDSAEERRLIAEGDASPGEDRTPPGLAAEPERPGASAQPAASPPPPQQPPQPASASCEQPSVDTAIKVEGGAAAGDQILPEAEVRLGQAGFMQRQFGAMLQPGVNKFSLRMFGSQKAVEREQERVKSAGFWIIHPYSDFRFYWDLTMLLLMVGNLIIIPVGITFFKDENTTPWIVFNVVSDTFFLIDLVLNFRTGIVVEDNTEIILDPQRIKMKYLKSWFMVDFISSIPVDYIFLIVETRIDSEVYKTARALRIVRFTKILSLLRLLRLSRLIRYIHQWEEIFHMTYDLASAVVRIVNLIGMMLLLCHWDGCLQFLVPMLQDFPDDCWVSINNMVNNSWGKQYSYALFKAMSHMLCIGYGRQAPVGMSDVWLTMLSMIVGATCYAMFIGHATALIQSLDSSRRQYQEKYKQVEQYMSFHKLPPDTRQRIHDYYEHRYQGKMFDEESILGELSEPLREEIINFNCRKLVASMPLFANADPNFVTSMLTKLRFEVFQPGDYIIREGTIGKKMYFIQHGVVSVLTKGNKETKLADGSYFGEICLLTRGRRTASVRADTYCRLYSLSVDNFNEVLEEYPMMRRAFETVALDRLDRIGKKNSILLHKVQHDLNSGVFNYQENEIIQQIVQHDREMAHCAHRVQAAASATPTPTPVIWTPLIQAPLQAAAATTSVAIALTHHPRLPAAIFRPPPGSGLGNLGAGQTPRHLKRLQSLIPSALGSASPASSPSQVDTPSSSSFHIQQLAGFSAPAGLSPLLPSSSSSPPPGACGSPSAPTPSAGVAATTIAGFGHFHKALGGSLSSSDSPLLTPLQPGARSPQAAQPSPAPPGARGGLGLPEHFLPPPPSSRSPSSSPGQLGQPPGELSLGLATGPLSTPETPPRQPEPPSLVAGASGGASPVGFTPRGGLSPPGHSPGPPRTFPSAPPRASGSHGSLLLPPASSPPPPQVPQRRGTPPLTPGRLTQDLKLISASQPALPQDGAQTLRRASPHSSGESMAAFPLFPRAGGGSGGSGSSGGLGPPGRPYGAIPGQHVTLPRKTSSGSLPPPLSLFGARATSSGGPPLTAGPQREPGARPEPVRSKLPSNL
# Assay: Inhibition of human HCN4 expressed in HEK293 cells assessed as reduction in hyperpolarization activated current at 5 uM at holding potential of -80 mV by patch clamp assay relative to control
# Type: cell-based
row,inhibition [%],Structure (SMILES)
1,47,COc1ccc(CCCN(C)[C@@H]2CCC[C@H](N3CCc4cc(OC)c(OC)cc4CC3=O)C2)cc1OC (relative stereo)
2,46,"COc1ccc(CCN(C)C2CCCC(N3CCc4cc(OC)c(OC)cc4CC3=O)C2)cc1OC (single isomer, unassigned; (+))"
3,45,"COc1ccc(CCN(C)C2CCCC(N3CCc4cc(OC)c(OC)cc4CC3=O)C2)cc1OC (single isomer, unassigned; (-))"

# Continued, molecule first:
row,Structure (SMILES),inhibition [%]
1,COc1ccc(CCN(C)[C@@H]2CC=C[C@H](N3C=Cc4cc(OC)c(OC)cc4CC3=O)C2)cc1OC,30
2,COc1ccc(CN(Cc2ccc(OC)c(OC)c2)[C@@H]2CCC[C@H](N3CCc4cc(OC)c(OC)cc4CC3=O)C2)cc1OC,4
3,COc1ccc(OCCN(C)[C@@H]2CCC[C@H](N3CCc4cc(OC)c(OC)cc4CC3=O)C2)cc1OC,48
4,COc1ccc(/C=C/CN(C)[C@@H]2CCC[C@H](N3CCc4cc(OC)c(OC)cc4CC3=O)C2)cc1OC (relative stereo),64
5,COc1ccc(CN(C)[C@@H]2CCC[C@H](N3CCc4cc(OC)c(OC)cc4CC3=O)C2)cc1OC (relative stereo),21

# Target: T1, Potassium/sodium hyperpolarization-activated cyclic nucleotide-gated channel 4 (Homo sapiens)
# Assay: Inhibition of human HCN4 expressed in HEK293 cells assessed as reduction in hyperpolarization activated current at 10 uM at holding potential of -80 mV by patch clamp assay relative to control
# Type: cell-based
row,inhibition [%],Structure (SMILES)
1,59,COc1ccc(CCN(C)CCCN2CCc3cc(OC)c(OC)cc3CC2=O)cc1OC
